We go through 14 compounds from patent US9296759B2, “Amino-oxazine and amino-dihydrothiazine compounds as beta-secretase modulators and methods of use” (AMGEN INC., priority 2011, dated 2016).

One experiment concerns Abeta 40. As to the kind of experiment: In vivo inhibition of beta-secretase: Abeta 40 reduction in CSF and brain of the rat. The conditions noted are these: 10 mpk, after 4 hrs. The text has this:
In Vivo Inhibition of Beta-Secretase
Several animal models, including mouse, rat, dog, and monkey, may be used to screen for inhibition of beta-secretase activity in vivo following administration of a test compound sample. Animals used in this invention can be wild type, transgenic, or gene knockout animals. For example, the Tg2576 mouse model, prepared and conducted as described in Hsiao et al., 1996, Science 274, 99-102, and other non-transgenic or gene knockout animals are useful to analyze in vivo inhibition of Amyloid beta peptide (Abeta) production in the presence of inhibitory test compounds. Generally, 2 to 18 month old Tg2576 mice, gene knockout mice or non-transgenic animals are administered test compounds formulated in vehicles, such as cyclodextran, phosphate buffers, hydroxypropyl methylcellulose or other suitable vehicles. One to twenty-four hours following the administration of compound, animals are sacrificed, and brains as well as cerebrospinal fluid (CSF) and plasma are removed for analysis of A-beta levels and drug or test compound concentrations (Dovey et al., 2001, Journal of Neurochemistry, 76, 173-181) Beginning at time 0, animals are administered by oral gavage, or other means of delivery such as intravenous injection, an inhibitory test compound of up to 100 mg/kg in a standard, conventional formulation, such as 2% hydroxypropyl methylcellulose, 1% Tween80. A separate group of animals receive 2% hydroxypropyl methylcellulose, 1% Tween80 alone, containing no test compound, and serve as a vehicle-control group. At the end of the test period, animals are sacrificed and brain tissues, plasma or cerebrospinal fluid are collected. Brains are either homogenized in 10 volumes (w/v) of 0.2% diethylamine (DEA) in 50 mM NaCl (Best et al., 2005, Journal of Pharmacology and Experimental Therapeutics, 313, 902-908), or in 10 volumes of 0.5% TritonX-100 in Tris-buffered saline (pH at about 7.6). Homogenates are centrifuged at 355,000 g, 4° C. for 30 minutes. CSF or brain supernatants are then analyzed for the presence of A-beta peptide by specific sandwich ELISA assays based on ECL (Electrochemiluminescence) technology. For example, rat Abeta40 is measured using biotinylated-4G8 (Signet) as a capture antibody and Fab40 (an in-house antibody specific to the C-terminal of Abeta40) as a detection antibody. For example, 4 hours after administration of 30 mg/kg oral dose of the test compound in 2% hydroxypropyl methylcellulose, 1% Tween80 (pH2.2) to 200 g male Sprague Dawley rats, amyloid beta peptide levels are measured for reduction by X % and Y % in cerebrospinal fluid and brain, respectively, when compared to the levels measured in the vehicle-treated rats.
• Oral: 2% HPMC, 1% Tween80, pH 2.2 • IV: 5% EtOH, 45% Propylene glycol in 5% Dextrose
The compounds of the invention may be shown to reduce the formation and/or deposition of amyloid beta peptide in the cerebrospinal fluid (CSF) as well as in the brain of a mouse or rat at either 3 mpk, 10 mpk or 30 mpk (mpk=mg compound per kg weight of the animal) dosing concentrations after 4 hrs.

Experiment [1] relates to Aβ40 in conditioned medium of cells stably expressing Amyloid Precursor Protein (APP). Nature of the experiment: In vitro BACE cell-based assay (HEK cell assay, Aβ40 sandwich ELISA). To be noted: Homo sapiens, HEK293; average IC50, Aβ40, 24 h incubation. In a few lines: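 Secreted Aβ40 was quantified by sandwich ELISA (pAb40 capture, biotinylated 6E10 detection, Europium time-resolved fluorescence). IC50 derived from percent inhibition versus concentration.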
(In general: ELISA stands for enzyme-linked immunosorbent assay.)

Experiment [2] has as its target BACE 1 (beta secretase enzyme) (Homo sapiens (Human), UniProt P56817). Nature of the experiment: In vitro enzymatic BACE FRET assay. Format: biochemical. The conditions noted are these: average IC50. In a few lines:
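The enzyme was tested in 0.05 M acetate, pH 4.2, with 10% DMSO final and 100 uM genapol. The reaction was started with 50 nM quenched FRET peptide substrate, incubated one hour and stopped with Tris to neutral pH. Cleavage was read as fluorescence ([…]).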

The next experiment addresses Cathepsin D (Homo sapiens (Human), UniProt P07339). Nature of the experiment: In vitro enzymatic Cat D (Cathepsin D) FRET assay. Format: biochemical. The conditions noted are these: average IC50. In a few lines: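 CHO-expressed recombinant enzyme in 0.05 M citrate pH 3.5, 5 mM CHAPS, 10% DMSO final; reaction started with 20 nM quenched-peptide FRET substrate (cleavage site spanned by fluorophore/quencher), 1 h incubation.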

The mark [3] stands for this setting: Abeta 40, rat CSF, read-out: % reduction of rat CSF levels at 10 pmk.
Where [4] appears, read: Abeta 40, rat brain, read-out: % reduction of rat brain levels at 10 mpk.

Read-outs that look alike come from different tables or passages of the source.

Chain of Cathepsin D (P07339 65-412, species assumed): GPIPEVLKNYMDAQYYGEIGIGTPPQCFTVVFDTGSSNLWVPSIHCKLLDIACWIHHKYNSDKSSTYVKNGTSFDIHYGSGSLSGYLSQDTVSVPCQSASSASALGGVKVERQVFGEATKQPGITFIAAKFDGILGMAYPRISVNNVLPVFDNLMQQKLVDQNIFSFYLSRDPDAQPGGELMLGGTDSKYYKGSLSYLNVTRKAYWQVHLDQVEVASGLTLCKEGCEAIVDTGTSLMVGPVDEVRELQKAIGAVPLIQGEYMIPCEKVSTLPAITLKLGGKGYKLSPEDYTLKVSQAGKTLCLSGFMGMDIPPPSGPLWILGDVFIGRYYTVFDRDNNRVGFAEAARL
Chain of BACE 1 (beta secretase enzyme) (P56817 46-501): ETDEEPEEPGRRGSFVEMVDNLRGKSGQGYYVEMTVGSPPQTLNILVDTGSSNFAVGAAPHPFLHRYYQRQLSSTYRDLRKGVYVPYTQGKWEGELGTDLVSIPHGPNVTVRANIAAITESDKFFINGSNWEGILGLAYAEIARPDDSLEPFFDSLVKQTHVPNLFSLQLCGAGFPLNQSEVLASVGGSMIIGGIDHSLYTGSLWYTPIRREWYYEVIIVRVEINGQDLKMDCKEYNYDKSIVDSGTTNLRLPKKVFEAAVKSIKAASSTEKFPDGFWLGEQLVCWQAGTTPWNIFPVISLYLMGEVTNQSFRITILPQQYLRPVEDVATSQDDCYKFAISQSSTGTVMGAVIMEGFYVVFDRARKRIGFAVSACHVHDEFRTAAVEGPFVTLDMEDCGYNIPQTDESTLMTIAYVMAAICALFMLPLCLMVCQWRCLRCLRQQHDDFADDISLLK

As to `NC1=N[C@@]2(CCO1)c1cc(NC(=O)c3ccc(Cl)cn3)ccc1Oc1c2cc(C2CC2)nc1F` [Example 40, N-((5S)-2′-amino-3-cyclopropyl-1-fluoro-5′,6′-dihydrospiro[chromeno[2,3-c]pyridine-5,4′-[1,3]oxazin]-7-yl)-5-chloro-2-pyridinecarboxamide], the results for the inhibition in vivo at 10 mg/kg in the experiment on Abeta 40 (setting [3]) and in the experiment on Abeta 40 (setting [4]) were 75% and 58%, respectively. Further, the IC50 in experiment [1] amounted to 3.4 nM; in experiment [2], 2.4 nM.

As to `NC1=N[C@@]2(CCO1)c1cc(NC(=O)c3ccc(Cl)cn3)ccc1Oc1ncc(C3=CCOCC3)cc12` [Example 45, N-((5S)-2′-amino-3-(3,6-dihydro-2H-pyran-4-yl)-5′,6′-dihydrospiro[chromeno[2,3-b]pyridine-5,4′-[1,3]oxazin]-7-yl)-5-chloro-2-pyridinecarboxamide], the half-maximal inhibitory concentration (IC50) on Cathepsin D is 341 µM; in experiment [1], 0.6 nM. For the same compound, the results for the inhibition in vivo at 10 mg/kg in the experiment on Abeta 40 (setting [3]) and in the experiment with Abeta 40 (setting [4]) were 27% and 14%, respectively.

For the compound `COc1cnc(C(=O)Nc2ccc3c(c2)[C@@]2(CCOC(N)=N2)c2cc(C4=CCCOC4)ncc2O3)cn1` [Example 58, N-((5S)-2′-amino-3-(5,6-dihydro-2H-pyran-3-yl)-5′,6′-dihydrospiro[chromeno[2,3-c]pyridine-5,4′-[1,3]oxazin]-7-yl)-5-methoxy-2-pyrazinecarboxamide], the inhibition in vivo at 10 mg/kg with Abeta 40 (setting [3]) came out at 55%; in the experiment on Abeta 40 (setting [4]), 36%. Further, the IC50 was determined as 1.1 nM in experiment [1] and 9.4 nM in experiment [2].

For the compound `CC(C)(C)C#Cc1cc2c(cn1)Oc1ccc(NC(=O)c3ccc(Cl)cn3)cc1[C@@]21CCOC(N)=N1` [Example 82, N-((5S)-2′-amino-3-(3,3-dimethyl-1-butyn-1-yl)-5′,6′-dihydrospiro[chromeno[2,3-c]pyridine-5,4′-[1,3]oxazin]-7-yl)-5-chloro-2-pyridinecarboxamide], the inhibition in vivo at 10 mg/kg in the experiment with Abeta 40 (setting [3]) came out at 67%; in the experiment with Abeta 40 (setting [4]), 42%. Further, the IC50 in experiment [1] turned out to be 1.9 nM; in experiment [2] it was 10 nM.

Regarding `COc1cnc(C(=O)Nc2ccc3c(c2)[C@@]2(CCOC(N)=N2)c2cc(-c4ccnc(F)c4)cc(F)c2O3)cn1` [Example 95, N-((4S)-2-amino-5′-fluoro-7′-(2-fluoro-4-pyridinyl)-5,6-dihydrospiro[1,3-oxazine-4,9′-xanthen]-2′-yl)-5-methoxy-2-pyrazinecarboxamide], the results for the inhibition in vivo at 10 mg/kg with Abeta 40 (setting [3]) and in the experiment on Abeta 40 (setting [4]) were 54% and 21%, respectively. The values for the half-maximal inhibitory concentration (IC50) in experiment [1] and in experiment [2] were 5.6 nM and 6.5 nM, respectively.

Regarding `NC1=N[C@@]2(CCO1)c1cc(NC(=O)c3ccc(F)cn3)ccc1Oc1c2cc(-c2ccnc(F)c2)nc1F` [Example 97, N-((5S)-2′-amino-1-fluoro-3-(2-fluoro-4-pyridinyl)-5′,6′-dihydrospiro[chromeno[2,3-c]pyridine-5,4′-[1,3]oxazin]-7-yl)-5-fluoro-2-pyridinecarboxamide], the inhibition in vivo at 10 mg/kg in the experiment with Abeta 40 (setting [3]) is 63%; in the experiment with Abeta 40 (setting [4]), 44%. The concentration for half-maximal inhibition (IC50) in experiment [1] is 1.1 nM; in experiment [2] it was 1.2 nM.

Consider `COc1cnc(C(=O)Nc2ccc3c(c2)[C@@]2(CCOC(N)=N2)c2cc(C4=CCCOC4)cc(F)c2O3)cn1` [Example 106, N-((4S)-2-amino-7′-(5,6-dihydro-2H-pyran-3-yl)-5′-fluoro-5,6-dihydrospiro[1,3-oxazine-4,9′-xanthen]-2′-yl)-5-methoxy-2-pyrazinecarboxamide], for which the IC50 amounted to 107 µM at Cathepsin D and 1.6 nM in experiment [1]. Also, the inhibition in vivo at 10 mg/kg in the experiment on Abeta 40 (setting [3]) is 43%; in the experiment with Abeta 40 (setting [4]), 16%.

As for `NC1=N[C@@]2(CCS1)c1cc(NC(=O)c3ccc(F)cn3)ccc1Oc1c2cc(C2=CCOCC2)nc1F` [Example 116, N-((5S)-2′-amino-3-(3,6-dihydro-2H-pyran-4-yl)-1-fluoro-5′,6′-dihydrospiro[chromeno[2,3-c]pyridine-5,4′-[1,3]thiazin]-7-yl)-5-fluoro-2-pyridinecarboxamide], the inhibition in vivo at 10 mg/kg came out at 73% with Abeta 40 (setting [3]) and 56% in the experiment with Abeta 40 (setting [4]). Besides, the IC50 is 0.6 nM in experiment [1] and 1 nM in experiment [2].

As to `NC1=N[C@@]2(CCS1)c1cc(NC(=O)c3ccc(Cl)cn3)ccc1Oc1c2cc(C2=CCOCC2)nc1F` [Example 117, N-((5S)-2′-amino-3-(3,6-dihydro-2H-pyran-4-yl)-1-fluoro-5′,6′-dihydrospiro[chromeno[2,3-c]pyridine-5,4′-[1,3]thiazin]-7-yl)-5-chloro-2-pyridinecarboxamide], the IC50 at Cathepsin D worked out at 133 µM; in experiment [1] it was 0.6 nM. In addition, the inhibition in vivo at 10 mg/kg was 80% in the experiment on Abeta 40 (setting [3]) and 70% with Abeta 40 (setting [4]).

As to `NC1=N[C@@]2(CCS1)c1cc(NC(=O)c3ccc(F)cn3)ccc1Oc1c2cc(-c2ccnc(F)c2)nc1F` [Example 118, N-((5S)-2′-amino-1-fluoro-3-(2-fluoro-4-pyridinyl)-5′,6′-dihydrospiro[chromeno[2,3-c]pyridine-5,4′-[1,3]thiazin]-7-yl)-5-fluoro-2-pyridinecarboxamide], the IC50 at Cathepsin D was determined as 400 µM; in experiment [1] it was 4.2 nM; in experiment [2] it was 1.5 nM.

On to `NC1=N[C@@]2(CCS1)c1cc(NC(=O)c3ncc(Cl)cc3F)ccc1Oc1c2cc(C2=CCOCC2)nc1F` [Example 119, N-((5S)-2′-amino-3-(3,6-dihydro-2H-pyran-4-yl)-1-fluoro-5′,6′-dihydrospiro[chromeno[2,3-c]pyridine-5,4′-[1,3]thiazin]-7-yl)-5-chloro-3-fluoro-2-pyridinecarboxamide], for which the half-inhibitory concentration (IC50) on Cathepsin D amounted to 311 µM; in experiment [1], 0.6 nM; in experiment [2], 2.6 nM.

Consider `Cc1cc(Br)cnc1C(=O)Nc1ccc2c(c1)[C@@]1(CCSC(N)=N1)c1cc(C3=CCOCC3)nc(F)c1O2` [Example 120, N-((5S)-2′-amino-3-(3,6-dihydro-2H-pyran-4-yl)-1-fluoro-5′,6′-dihydrospiro[chromeno[2,3-c]pyridine-5,4′-[1,3]thiazin]-7-yl)-5-bromo-3-methyl-2-pyridinecarboxamide], for which the IC50 at Cathepsin D stood at 88.3 µM; in experiment [1], 0.5 nM; in experiment [2] it was 1.4 nM.

In the case of `COc1cnc(C(=O)Nc2ccc3c(c2)[C@@]2(CCSC(N)=N2)c2cc(C4=CCOCC4)nc(F)c2O3)c(C)c1` [Example 121, N-((5S)-2′-amino-3-(3,6-dihydro-2H-pyran-4-yl)-1-fluoro-5′,6′-dihydrospiro[chromeno[2,3-c]pyridine-5,4′-[1,3]thiazin]-7-yl)-5-methoxy-3-methyl-2-pyridinecarboxamide], the IC50 is 159 µM at Cathepsin D, 1.8 nM in experiment [1] and 5.4 nM in experiment [2].

On to `Cc1cc(Cl)cnc1C(=O)Nc1ccc2c(c1)[C@@]1(CCSC(N)=N1)c1cc(C3=CCOCC3)nc(F)c1O2` [Example 122, N-((5S)-2′-amino-3-(3,6-dihydro-2H-pyran-4-yl)-1-fluoro-5′,6′-dihydrospiro[chromeno[2,3-c]pyridine-5,4′-[1,3]thiazin]-7-yl)-5-chloro-3-methyl-2-pyridinecarboxamide], for which the IC50 turned out to be 133 µM at Cathepsin D, 0.8 nM in experiment [1] and 2.9 nM in experiment [2].

What is called IC50 is the concentration needed to halve the response being measured.
